Drawing on PMC10780011 (2023), this text covers Kb and binding for 6 compounds.

The subject of test [1] is d(5′-CGCGAATTCGCG-3′)2 (DNA, duplex) CGCGAATTCGCG
As to the kind of experiment: ethidium bromide displacement, fluorescence quenching, double-log plot. To be noted: 100 mM phosphate; pH 7.0, 298 K; apparent; ethidium bromide displaced; 20 μM DNA.

Test [2] has the same test system. As to the kind of experiment: 1H NMR titration, NOESY. Particulars: 100 mM phosphate, pH 7.0, 298 K, H2O:D2O 9:1.

Structures are written as SMILES.

`[Ru+2].c1cc[cH-]c1.c1ccc(-c2ccccc2)cc1`: in test [1], the Kb is 2.330 ± 0.001 × 10^3 M^−1.
With `[Ru+2].c1cc[cH-]c1.c1ccc(-c2ccc(-c3ccc(-c4ccccc4)cc3)cc2)cc1`, the binding entry in test [2] (10 mM NaCl, partial intercalation T7/T8 and groove, precipitates without NaCl) is on record as “yes”. Moreover, the Kb in test [1] is 8.111 ± 0.001 × 10^3 M^−1.
In the case of `[Ru+2].c1cc[cH-]c1.c1ccc(-c2ccc(-c3ccccc3)cc2)cc1`, in test [1], the Kb is 3.532 ± 0.001 × 10^3 M^−1.
The same measure, in the same setting: then `[Ru+2].[Ru+2].[Ru+2].c1cc[cH-]c1.c1cc[cH-]c1.c1cc[cH-]c1.c1ccc(-c2ccc(-c3ccc(-c4ccccc4)cc3)cc2)cc1`, with 2.803 ± 0.121 × 10^3 M^−1.
In the case of `[Ru+2].[Ru+2].c1cc[cH-]c1.c1cc[cH-]c1.c1ccc(-c2ccc(-c3ccc(-c4ccccc4)cc3)cc2)cc1`, the binding result in test [2] (minor and major groove, non-specific) was “yes”. Also, the Kb in test [1] is on record as 5.933 ± 0.001 × 10^3 M^−1.
Consider `[Ru+2].[Ru+2].c1cc[cH-]c1.c1cc[cH-]c1.c1ccc(-c2ccc(-c3ccccc3)cc2)cc1`, for which the Kb in test [1] is 0.815 ± 0.001 × 10^3 M^−1.
